According to patent publication US20220193081A1 (Ellamed IP & Services PTE. LTD., priority 2019, published 2022):
Where two headings read alike, the source gives them in different places. Marks after values point to notes of the source that are not given here.

What was measured:
[1] = Ionic strength study, visual inspection: sildenafil citrate and sucralose in absolute alcohol mixed with equal volume of NaCl solution or purified water (Example 3); format: physicochemical
Procedure: The mixtures were then either placed on storage or NaOH 1N solution was introduced to reach a predetermined pH values. Before being placed on storage, and at time points 7 and 42 days, the concentration of sildenafil in the mixtures were assayed using HPLC. The samples were then stored at either −20° C., 2-8° C. or 25° C. for periods of up to 42 days. Periodically, the samples were visually inspected for evidence of crystallization.

[2] = Visual inspection on storage of sildenafil citrate in buffered 60% aqueous ethanol (Example 4); format: physicochemical; conditions: pH 5.5, NaOH
Procedure: Before being placed on storage, and at time points 7 and 42 days, the concentration of sildenafil in the mixtures were assayed using HPLC. The samples were then stored at either −20° C., 2-8° C. or 25° C. for periods of up to 42 days. Periodically, the samples were visually inspected for evidence of crystallization.

[3] = Maximum dissolution study in 50% aqueous ethanol, visual inspection (Example 5); format: physicochemical; conditions: pH 5.5, NaOH
Procedure: (§1) Before being placed on storage, and at time points 7, 42 days and 2 months, the concentration of sildenafil in the mixtures were assayed using HPLC. The samples were then stored at either −20° C., 2-8° C. or 25° C. for periods of up to 2 months. Periodically, the samples were visually inspected for evidence of crystallization.

[4] = Maximum dissolution study in 50% aqueous ethanol, HPLC assay (Example 5); format: physicochemical; conditions: added until precipitation occurred, pH 5.5, NaOH
Procedure: as §1

[5] = Extended stability in buffered 50% ethanol, HPLC assay of sildenafil and impurities (Example 6); format: physicochemical
Procedure: Before being placed on storage in glass vials, plastic containers or Easysnap® blisters, and at time points up to 160 days, the concentration of sildenafil and its impurities in the mixtures were assayed using HPLC. The samples were then stored at 25° C./60% RH, 30° C./65% RH or 40° C./75% RH for periods of up to 160 days. The results of the assays are shown in Table 10 (sildenafil), Table 11 (Impurity B) and Table 12 (Impurity D).

[6] = cited from earlier work
[7] = tablets or oral suspension; cited from earlier work
[8] = Easysnap ®, 25° C./60% RH, Day 32
[9] = Easysnap ®, 25° C./60% RH, Day 80
[10] = Easysnap ®, 25° C./60% RH, Day 159
[11] = Easysnap ®, 30° C./65% RH, Day 32
[12] = Easysnap ®, 40° C./75% RH, Day 32
[13] = plastic, 25° C./60% RH, Day 159
[14] = EMEA CHMP Assessment Report for VIZARSIN
[15] = Jordanian Pharmaceutical Manufacturing Co.

CCCc1nn(C)c2c(=O)nc(-c3cc(S(=O)(=O)N4CCN(C)CC4)ccc3OCC)[nH]c12.O=C(O)CC(O)(CC(=O)O)C(=O)O [sildenafil citrate, 1-[[3-(4,7-Dihydro-1-methyl-7-oxo-3-propyl-1H-pyrazolo[4,3-d]pyrimidin-5-yl)-4-ethoxyphenyl]sulfonyl]-4-methylpiperazine citrate salt]
visual inspection for crystallization ([1]; 15 mg/ml, pH 4.39, NaCl diluent 100 mM, initially added to 40 ml of diluent, −20° C.): Prec. | visual inspection for crystallization ([1]; 15 mg/ml, pH 4.45, NaCl diluent 50 mM, −20° C.): Prec. | visual inspection for crystallization ([1]; 15 mg/ml, pH 4.52, NaCl diluent 25 mM, 2-8° C.): Prec. | visual inspection for crystallization ([1]; 15 mg/ml, pH 4.52, NaCl diluent 25 mM, −20° C.): Prec. | visual inspection for crystallization ([1]; 15 mg/ml, pH 4.75, purified water diluent, 2-8° C.): Prec. | visual inspection for crystallization ([1]; 15 mg/ml, pH 4.75, purified water diluent, −20° C.): Prec. | visual inspection for crystallization ([1]; 18 mg/ml, pH 5.5 (NaOH), NaCl diluent 100 mM, −20° C.): Prec. | visual inspection for crystallization ([1]; 21 mg/ml, pH 5.5 (NaOH), NaCl diluent 100 mM, −20° C.): Prec. | visual inspection for crystallization ([2]; 18 mg/ml, with sucralose, 2-8° C.): Prec. | visual inspection for crystallization ([2]; 18 mg/ml, with sucralose, −20° C.): Prec. | visual inspection for crystallization ([2]; 18 mg/ml, without sucralose, 2-8° C.): Prec. | visual inspection for crystallization ([2]; 18 mg/ml, without sucralose, −20° C.): Prec. | visual inspection for crystallization ([2]; 21 mg/ml, without sucralose, 2-8° C.): Prec. | visual inspection for crystallization ([2]; 21 mg/ml, without sucralose, −20° C.): Prec. | visual inspection for crystallization ([3]; Day 0 51.65 mg/ml, without sucralose, 2-8° C.): Prec. | visual inspection for crystallization ([3]; Day 0 51.65 mg/ml, without sucralose, −20° C.): Prec. | visual inspection for crystallization ([3]; Day 0 82.79 mg/ml, with sucralose, 2-8° C.): Prec. | visual inspection for crystallization ([3]; Day 0 82.79 mg/ml, with sucralose, −20° C.): Prec. | visual inspection for crystallization ([3]; Day 0 123.95 mg/ml, with sucralose, 25° C. (single cell in the row)): Prec. | Day 0 concentration sildenafil ([4]; with sucralose (second sample)): 82.79* mg/ml | Day 0 concentration sildenafil ([4]; with sucralose (third sample)): 123.95* mg/ml | Day 0 concentration sildenafil ([4]; without sucralose (first sample)): 51.65 mg/mL | sildenafil assay ([5]; 20 mg/ml with sucralose 1 mg/ml, monoammonium glycyrrhizinate 1 mg/ml, eucalyptus-menthol 3 mg/ml, Day 0, before storage): 102.02 % LS | Impurity B [5, 8]: 0.09 % RS | Impurity D [5, 8]: 0.030 % RS | sildenafil assay [5, 8]: 100.87 % LS | Impurity B [5, 9]: 0.11 % RS | Impurity D [5, 9]: 0.030 % RS | sildenafil assay [5, 9]: 101.53 % LS | Impurity B [5, 10]: 0.20 % RS | Impurity D [5, 10]: 0.034 % RS | sildenafil assay [5, 10]: 100.91 % LS | Impurity B [5, 11]: 0.10 % RS | Impurity D [5, 11]: 0.030 % RS | sildenafil assay [5, 11]: 100.85 % LS | Impurity B [5, 12]: 0.20 % RS | Impurity D [5, 12]: 0.030 % RS | sildenafil assay [5, 12]: 101.46 % LS | Impurity B ([5]; glass, 25° C./60% RH, Day 32): 0.07 % RS | Impurity D ([5]; glass, 25° C./60% RH, Day 32): 0.030 % RS | sildenafil assay ([5]; glass, 25° C./60% RH, Day 32): 100.76 % LS | Impurity B ([5]; glass, 25° C./60% RH, Day 80): 0.10 % RS | Impurity D ([5]; glass, 25° C./60% RH, Day 80): 0.030 % RS | sildenafil assay ([5]; glass, 25° C./60% RH, Day 80): 101.47 % LS | Impurity B ([5]; glass, 25° C./60% RH, Day 159): 0.17 % RS | Impurity D ([5]; glass, 25° C./60% RH, Day 159): 0.038 % RS | sildenafil assay ([5]; glass, 25° C./60% RH, Day 159): 100.68 % LS | Impurity B ([5]; glass, 30° C./65% RH, Day 32): 0.10 % RS | Impurity D ([5]; glass, 30° C./65% RH, Day 32): 0.030 % RS | sildenafil assay ([5]; glass, 30° C./65% RH, Day 32): 100.46 % LS | Impurity B ([5]; glass, 40° C./75% RH, Day 32): 0.17 % RS | Impurity D ([5]; glass, 40° C./75% RH, Day 32): 0.030 % RS | sildenafil assay ([5]; glass, 40° C./75% RH, Day 32): 100.39 % LS | Impurity B ([5]; glass, 40° C./75% RH, Day 159): 0.45 % RS | Impurity D ([5]; glass, 40° C./75% RH, Day 159): 0.039 % RS | sildenafil assay ([5]; glass, 40° C./75% RH, Day 159): 100.60 % LS | Impurity B ([5]; plastic, 25° C./60% RH, Day 32): 0.08 % RS | Impurity D ([5]; plastic, 25° C./60% RH, Day 32): 0.040 % RS | sildenafil assay ([5]; plastic, 25° C./60% RH, Day 32): 100.42 % LS | Impurity B ([5]; plastic, 25° C./60% RH, Day 80): 0.09 % RS | Impurity D ([5]; plastic, 25° C./60% RH, Day 80): 0.030 % RS | sildenafil assay ([5]; plastic, 25° C./60% RH, Day 80): 101.59 % LS | Impurity B [5, 13]: 0.16 % RS | Impurity D [5, 13]: 0.033 % RS | sildenafil assay [5, 13]: 101.19 % LS | Impurity B ([5]; plastic, 30° C./65% RH, Day 32): 0.09 % RS | Impurity D ([5]; plastic, 30° C./65% RH, Day 32): 0.030 % RS | sildenafil assay ([5]; plastic, 30° C./65% RH, Day 32): 100.79 % LS | Impurity B ([5]; plastic, 40° C./75% RH, Day 32): 0.17 % RS | Impurity D ([5]; plastic, 40° C./75% RH, Day 32): 0.030 % RS | sildenafil assay ([5]; plastic, 40° C./75% RH, Day 32): 100.76 % LS | solubility in acetone [6, 14]: insoluble | solubility in chloroform [6, 14]: insoluble | solubility in dimethyl sulfoxide (DMSO) [6, 14]: soluble | solubility in ethanol [6, 14]: insoluble | solubility in methanol [6, 14]: soluble | solubility in ethanol [6, 15]: ~1000 µg/mL | times less soluble in ethanol than in water [6, 15]: about 3.5 times | absolute bioavailability [7]: about 41%
